What was measured:
[1] = test system: glutathione in the brain; assay: Glutathione (GSH) levels in whole-brain homogenates by LC/MS after intranasal or oral NAC; format: in vivo, male Sprague-Dawley rats; details: for glutathione in the brain compared to vehicle control (IN PBS): 0.5 hours and 2 hours following administration
Description: (§1) In this example, a study was conducted to evaluate the pharmacokinetics of N-acetyl cysteine administered in an intranasal formulation. The study also evaluated the effectiveness on intranasally administered NAC to increase glutathione concentration in the brain.
(§2) C13-labelled N-acetyl L-cysteine (purchased from Cambridge Isotope Laboratories) was used to prepare formulations in phosphate-buffered saline (PBS) for the study. The subjects for the study were male Sprague-Dawley rats weighing approximately 250 grams, and 39 animals were separated into four groups, as shown in Table 1. The animals in the study groups were administered either an intranasal (IN) dose or an oral (PO) dose of N-acetyl cysteine via gavage, as shown in Table 1. Group 1 and group 2 were administered one 20 μl, intranasal injection. Group 3 was administered a single oral dose of 500 μL. Group 4 was administered two separate 10 μL intranasal injections (one per nostril).
The animals were fasted the night prior to the study and were anesthetized using a cocktail of ketamine/xylazine before administration of the study formulation. The rats were left on their sides for 15 minutes after administration of the study formulation. The animals were observed post administration, and at least once a day, more if deemed necessary, during the pre-treatment and treatment periods for mortality and morbidity. In particular, signs of ill health were based on body weight loss, change in appetite, and behavioral changes such as altered gait, lethargy and gross manifestations of stress.
(§3) Three animals from each Group were sacrificed at the established time points (0.5 hour, 1.0 hour and 2.0 hour), and whole brains from the sacrificed animals were collected for analysis. 3 animals from Group 3 were also sacrificed pre-dose and analyzed. The brain samples were stored at −80° C. freezer until sample analysis. Homogenates of the brain samples were prepared and analyzed, and glutathione (GSH) levels in the brain samples were measured by LC/MS.

[2] = set-up: species or system male Sprague-Dawley rats; details: rat, in vivo, 20 mg/kg
Description: as §1
as §2, with “nostril). […]” for “nostril).”
as §3, with “The brain samples were stored at −80° C. freezer until sample analysis.” left out

[3] = test system: blast induced mild traumatic brain injury; details: orally administered, cited from earlier work
[4] = orally administered; cited from earlier work
[5] = test system: traumatic brain injury; details: more than 20 preclinical studies; cited from earlier work
[6] = test system: traumatic brain injury; details: cited from earlier work

Molecule	raising glutathione levels in the brain, intranasal compared with oral NAC ([1]; intranasal 20 mg/kg vs oral (PO) 20 mg/kg, rat whole brain, FIG. 1)	increased GSH concentration in the brain, IN NAC vs IN PBS group ([1]; intranasal 20 mg/kg, 2 hour point, p=0.033, Student's T-test, planned comparison)	glutathione in the brain compared to vehicle control (IN PBS) ([1]; intranasal NAC 20 mg/kg)	glutathione in the brain compared to vehicle control (IN PBS) ([1]; oral NAC 20 mg/kg)	concentration of isotope labeled NAC in brain tissue following administration [2]	severity and resolution of sequelae of blast induced mild traumatic brain injury ([3]; 81 active duty service members)	reducing the symptoms of mild-moderate traumatic brain injury in human patients [3]	adverse effects [4]	outcome following traumatic brain injury [5]	increase of the incidence of deep venous thrombosis of the lower limbs ([6]; in vivo)	number of patients with severe neurological dysfunction (GOS-E level 1-4) ([6]; large multi-center randomized controlled trial)
CC(=O)N[C@@H](CS)C(=O)O [NAC, N-acetylcysteine]	as effective as oral NAC	statistically significant	Clear trends for increased glutathione	Clear trends for increased glutathione	did not detect an increase	beneficial effects	effective	may cause nausea, vomiting and diarrhea	–	–	–
erythropoietin	–	–	–	–	–	–	–	–	improves outcome	did not	did not reduce
